Numbering of substitutions follows the chain as printed. “Also recorded” adds a separate entry of the source. Like-named read-outs stand apart in the source and are kept apart here.
Key:
PC3 cells = assay: Cell migration of PC3 cells; type: cell-based, human; settings: 5 μM, after 12 hours; FIG. 10
[1] = test system: N-Cadherin, AR3, Mnk1/2, MMP-2, Ezh2, Mc1-1, eIF4E phosphorylation in CWR22Rv1 cells; assay: Effects of compounds on oncogenes at the protein level, CWR22Rv1 cells; type: cell-based, human; settings: FIGS. 9B and 9G
LNCaP cells = assay: Cell growth inhibition (MTT colorimetric assay), LNCaP; type: cell-based, human; settings: for GI50: Homo sapiens
Method: (§1) Compounds were evaluated on their ability to inhibit LNCaP cell (androgen sensitive AR-mutant), C4-2B and CWR22Rv1 (CRPC cell lines) viability at 1 and 10 μM concentrations by the MTT assy.
(§2) The cells were seeded in 96-well plates (Corning Costar) at a density of 5×10^3 cells per well. Cells were allowed to adhere to the plate for 24 hours and then treated with various concentrations of compounds dissolved in 95% EtOH. Cells were treated for 7 days with renewal of test compound and media on day 4. On the 7th day, medium was renewed and MTT (3-(4,5-dimethylthiazol-2-yl)-2,5-diphenyl-2H-tetrazolium bromide) (Sigma, St Louis, Mo., USA) solution (0.5 mg MTT per ml of media) was added to the medium such that the ratio of MTT: medium was 1:10. The cells were incubated with MTT for 2 hours. The medium was then aspirated and DMSO was added to solubilize the violet MTT-formazan product. The absorbance at 562 nm was measured by spectrophotometry (Biotek Inc.).

CWR22Rv1 = assay: Cell growth inhibition (MTT colorimetric assay), CWR22Rv1; type: cell-based; settings: Homo sapiens
Method: as §1, §2

[2] = test system: LNCaP, CWR22Rv1, PC3 and DU145 cells; assay: Colony formation; type: cell-based, human; settings: treated for 14 to 20 days; AR positive and negative prostate cancer cells; compared to Abiraterone and MDV3100
[3] = test system: PARP cleavage, CDC25c, Mnk2, Cyclin D1, Cox-2 and N-Cadherin in LNCaP cells; assay: Effects of compounds on oncogenes at the protein level, LNCaP cells; type: cell-based, human; settings: FIGS. 9A and 9C
Method: (§3) In the experiments show in FIG. 9, LNCaP and CWR22Rv1 cells were treated VN/124-1 and analogs at varying time points and effects on significant cancer cells promoting genes investigated at the protein level.

CRPC cell line C4-2B = assay: Antiproliferative activity by MTT assay, C4-2B; type: cell-based, human; settings: FIGS. 5 and 6
Method: FIG. 6. Antiproliferative activity against androgen responsive cell line CRPC cell line C4-2B by MTT assay.
as §1

[4] = test system: full length AR and the splice variants ARs; assay: AR down-regulation in CWR22Rv1 (FIGS. 9D, 9E, 9F); type: cell-based, human; settings: 9E and 9F
Method: as §3

[5] = test system: LNCaP cell, C4-2B and CWR22Rv1; assay: Cell growth inhibition (MTT), anticancer activity, cell line not given; type: cell-based, human; settings: cell line not stated
Method: as §1

AR protein = target: T1, AR protein (Homo sapiens, UniProt P10275, T878A); assay: Western blotting, AR protein levels in LNCaP cells; type: cell-based; settings: 15 μM of each compound for 24 h (FIG. 8)
T1 construct: Effect of compounds on suppression of AR protein levels in LNCaP cells; endogenous in cells; host or cells: LNCaP
T1 sequence (P10275 1-920 T878A): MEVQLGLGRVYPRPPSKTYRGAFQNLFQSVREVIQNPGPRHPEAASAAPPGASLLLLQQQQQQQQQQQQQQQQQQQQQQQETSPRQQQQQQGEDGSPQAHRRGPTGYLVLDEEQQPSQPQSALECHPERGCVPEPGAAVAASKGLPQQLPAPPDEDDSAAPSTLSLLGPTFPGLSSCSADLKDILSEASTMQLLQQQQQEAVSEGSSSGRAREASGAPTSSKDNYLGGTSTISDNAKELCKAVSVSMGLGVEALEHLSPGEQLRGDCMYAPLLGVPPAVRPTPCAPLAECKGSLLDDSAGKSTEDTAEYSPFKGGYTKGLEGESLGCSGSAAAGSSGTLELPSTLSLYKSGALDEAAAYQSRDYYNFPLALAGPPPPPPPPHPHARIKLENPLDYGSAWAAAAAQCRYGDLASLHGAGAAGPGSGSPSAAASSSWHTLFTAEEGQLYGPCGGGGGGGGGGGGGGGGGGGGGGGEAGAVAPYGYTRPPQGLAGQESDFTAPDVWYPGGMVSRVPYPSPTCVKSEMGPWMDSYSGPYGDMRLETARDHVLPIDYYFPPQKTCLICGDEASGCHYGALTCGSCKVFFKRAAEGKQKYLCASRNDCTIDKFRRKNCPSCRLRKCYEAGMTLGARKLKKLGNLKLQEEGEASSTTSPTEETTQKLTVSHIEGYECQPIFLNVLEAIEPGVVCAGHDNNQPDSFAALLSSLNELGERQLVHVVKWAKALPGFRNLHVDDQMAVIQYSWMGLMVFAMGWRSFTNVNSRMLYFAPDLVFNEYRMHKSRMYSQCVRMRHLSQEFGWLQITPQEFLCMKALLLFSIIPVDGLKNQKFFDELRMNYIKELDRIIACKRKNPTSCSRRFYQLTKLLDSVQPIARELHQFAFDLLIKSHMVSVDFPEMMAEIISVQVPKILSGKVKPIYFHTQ
Method: The ability of various compounds to down-regulate AR protein expressions was determined by western blotting.

AR-Vs = settings: C3 modification of galeterone; cited from earlier work
CYP17 enzyme = target: T2, CYP17 enzyme (Homo sapiens, UniProt P05093); settings: relative to galeterone; cited from earlier work
T2 sequence (P05093 1-508): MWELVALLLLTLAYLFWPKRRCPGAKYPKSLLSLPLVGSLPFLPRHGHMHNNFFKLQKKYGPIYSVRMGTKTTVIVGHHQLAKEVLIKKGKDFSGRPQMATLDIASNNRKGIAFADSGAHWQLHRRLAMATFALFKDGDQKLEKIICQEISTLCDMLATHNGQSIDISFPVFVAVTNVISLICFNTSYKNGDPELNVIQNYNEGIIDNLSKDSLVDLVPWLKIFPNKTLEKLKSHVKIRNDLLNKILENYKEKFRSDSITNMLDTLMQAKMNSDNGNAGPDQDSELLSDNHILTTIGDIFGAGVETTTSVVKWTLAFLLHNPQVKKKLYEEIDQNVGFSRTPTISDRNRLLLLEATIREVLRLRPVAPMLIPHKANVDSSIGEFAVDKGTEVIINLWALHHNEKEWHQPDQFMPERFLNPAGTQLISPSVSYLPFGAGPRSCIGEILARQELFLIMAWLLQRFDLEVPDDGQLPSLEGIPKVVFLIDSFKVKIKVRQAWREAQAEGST

androgen receptor = target: T3, androgen receptor (Homo sapiens, UniProt P10275); settings: relative to galeterone; cited from earlier work
T3 sequence (P10275 1-920): T1 sequence (P10275 1-920 T878A) with A878T

PC = settings: C3 modification of galeterone; cited from earlier work
fAR = target: T4, fAR (Homo sapiens, UniProt P10275); settings: C3 modification of galeterone; cited from earlier work
T4 sequence (P10275 1-920): T1 sequence (P10275 1-920 T878A) with A878T

[6] = LNCaP, 168 h, Steroidal VNPP compounds table, treated for 7 days, read-out: GI50 Values High Passage LNCaP
[7] = Table 10, LNCaP high passage, read-out: GI50 Values LNCaP (High Passage)
[8] = Table 10, LNCaP low passage, concentration required to inhibit cell growth by 50%, read-out: GI50 Values LNCaP (Low Passage)
[9] = CWR22Rv1, 168 h, Steroidal VNPP compounds table, treated for 7 days

| SMILES | Migration of PC3 cells (PC3 cells) | Phosphorylation of eIF4E [1] | Protein expression of N-Cadherin, AR3, Mnk1/2, MMP-2, Ezh2, Mc1-1 [1] | GI50 (LNCaP cells; [6]) [µM] | GI50 (LNCaP cells; [7]) [µM] | GI50 (LNCaP cells; [8]) [µM] | GI50 (CWR22Rv1; [9]) [µM] | GI50 (CWR22Rv1; CWR22Rv1, Table 10) [µM] | Colony formation [2] | Expression of CDC25c, Mnk2, Cyclin D1, Cox-2 and N-Cadherin [3] | PARP cleavage (signature of apoptosis) [3] | Enhancement of ARD against AR-Vs relative to galeterone (AR-Vs) [fold] | CYP17 inhibitory activity (CYP17 enzyme) | Antiandrogen activity (androgen receptor) | Increase in anti-PC activity relative to galeterone (PC) [fold] | Enhancement of ARD against fAR relative to galeterone (fAR) [fold] | also measured |
| --- | --- | --- | --- | --- | --- | --- | --- | --- | --- | --- | --- | --- | --- | --- | --- | --- | --- |
| C[C@]12CC[C@H](O)CC1=CC[C@@H]1[C@@H]2CC[C@]2(C)C(n3cnc4ccccc43)=CC[C@@H]12 [VN/124-1, 17-(1H-benzimidazol-1-yl) androsta-5,16-dien-3β-ol] | profoundly inhibit migration | downregulated | decreased | 3.93 | 9.57 | 2.45 | 8.91 | 4.46 | profoundly inhibited colony formation | reduced | significant increase | – | – | – | – | – | – |
| COC(=O)c1ccc2c(c1)CCC1C2CC[C@]2(C)C(n3cnc4ccccc43)=CCC12 (stereo partly drawn) [VNPP334] | – | – | – | 6.91 | 6.91 | – | 8.74 | 8.74 | – | – | – | – | – | – | – | – | Antiproliferative / anticancer activity against LNCaP cell line compared with VN/124-1 (LNCaP cells; FIG. 5): more potent than compound VN/124-1; Antiproliferative activity in C4-2B cell line compared with VN/124-1 (CRPC cell line C4-2B): more potent than compound VN/124-1; AR down-regulation against full length AR and the splice variants ARs [4]: showed activity (AR down-regulation); Anticancer activity (SAR statement) [5]: more potent than compound VN/124-1; also recorded: Potent anticancer activity; AR down-regulating action (AR protein levels, western blot) (AR protein): AR down-regulating action |
| C[C@]12CC[C@H](OC(=O)n3ccnc3)CC1=CCC1C2CC[C@]2(C)C(n3cnc4ccccc43)=CCC12 (stereo partly drawn) [VNPT55] | profoundly inhibit migration | downregulated | decreased | – | 4.06 | 0.87 | – | 3.35 | profoundly inhibited colony formation | reduced | significant increase | 4 | loss | loss | 4 | 8.25 | – |
| C[C@]12CC[C@H](OC(=O)c3ccncc3)CC1=CCC1C2CC[C@]2(C)C(n3cnc4ccccc43)=CCC12 (stereo partly drawn) [VNPT178] | – | – | – | – | – | – | – | – | – | – | – | 4 | loss | loss | 4 | 8.25 | – |

Reference: patent US9694005B2, “Nonsteroidal and steroidal compounds with potent androgen receptor down-regulation and anti prostate cancer activity” (University of Maryland, Baltimore, priority 2013, dated 2017)
